{"source": "paper PMC5352699", "about": "“Synthesis and in vitro antitumor activity of (1E,4E)-1-aryl-5-(2-((quinazolin-4-yl)oxy)phenyl)-1,4-pentadien-3-one derivatives” (Chemistry Central Journal, 2017)", "key": {"[1]": {"test_system": "human breast cancer cell line Bcap-37", "experiment": "MTT assay, Bcap-37 cells", "assay_type": "cell-based", "description": "(§1) The in vitro antitumor activity of the newly synthesized compounds 5a–5n were evaluated against a panel of three human cancer cell lines, including human gastric cancer cell line MGC-803, human prostate cancer cell line PC3, and human breast cancer cell line Bcap-37, and one normal cell line NIH3T3 (mouse embryo fibroblast cell line) by MTT method. Adriamycin (ADM) was chosen as a reference drug due to its availability and widespread use. Each experiment was repeated at least three times.\n(§2) Human gastric cancer cell line MGC-803, human prostate cancer cell line PC3, and human breast cancer cell line Bcap-37 and one normal cell line NIH3T3 were obtained from Cell Bank of Type Culture Collection of Chinese Academy of Sciences (Shanghai, China). NIH3T3 was routinely maintained in a DMEM medium, while all the other cell lines were cultured in a 1640 medium. All the cells were grown in the medium supplemented with 10% FBS at 37 °C with 5% CO2.\n(§3) The growth-inhibitory effects of the test compounds were determined on MGC-803, PC3, Bcap-37, and NIH3T3 cells. All cell types were seeded into 96-well plates at a density of 2 × 10^3 cells/well 100 μL of the proper culture medium and incubated with increasing concentrations of the compounds at 37 °C under cell culturing conditions. An MTT assay (Roche Molecular Biochemicals, 1465-007) was performed 72 h later according to the instructions provided by Roche. The precipitated formazan crystals were dissolved in SDS, and the absorbance was read at 595 nm with a microplate reader (BIO-RAD, model 680), which is directly proportional to the number of living cells in culture. The experiment was performed in triplicate. The percentage cytotoxicity was calculated using the formula. %Cytotoxicity=Controlabs-Blankabs-Testabs-Blankabs/Controlabs-Blankabs×100"}, "[2]": {"test_system": "normal cell line NIH3T3 (mouse embryo fibroblast cell line)", "experiment": "MTT assay, NIH3T3 normal cells", "assay_type": "cell-based", "settings": "72 h, read-out: Inhibition rates against different cells (%) NIH3T3", "description": "as §1, §2, §3"}, "[3]": {"test_system": "human gastric cancer cell line MGC-803", "experiment": "MTT assay, MGC-803 cells", "assay_type": "cell-based", "description": "as §1, §2, §3"}, "MGC-803 cells [4]": {"test_system": "MGC-803 cells", "experiment": "Hoechst 33,258 staining for apoptosis", "assay_type": "cell-based, human", "settings": "MGC-803 cells, 1, 5, and 10 μM, 12 h", "description": "Membrane-permeable Hoechst 33,258 was a blue fluorescent dye and stained the cell nucleus. […] MGC-803 cells treated with compound 5f at concentrations of 1, 5, and 10 μM for 12 h were stained with Hoechst 33,258, with HCPT as positive control at 10 μM for 12 h. The results are illustrated in Fig. 2b.\nCells were seeded in 6-well culture plates at a density of 5 × 10^4 cells/mL in 0.6 mL of medium and allowed to adhere to the plates overnight. The cells were incubated with different concentrations of compounds or vehicle solution (0.1% DMSO) in a medium containing 10% FBS for 12 h. After the treatment, the cells were fixed with 4% paraformaldehyde for 10 min, followed by incubation with Hoechst 33,258 staining solution (Beyotime) for 5 min and finally analyzed for morphological characteristics of cell apoptosis under a fluorescence microscope (Olympus Co., Japan)."}, "[5]": {"test_system": "human prostate cancer cell line PC3", "experiment": "MTT assay, PC3 cells", "assay_type": "cell-based", "description": "as §1, §2, §3"}, "MGC-803 cells [6]": {"test_system": "MGC-803 cells", "experiment": "TUNEL assay", "assay_type": "cell-based, human", "settings": "5 μM, 5f 6, 12, and 18 h, HCPT 18 h", "description": "To further verify AO/EB and Hoechst 33,258 staining results, TUNEL assay was also carried out. TUNEL (Terminal deoxynucleotidyl Transferase Biotin-dUTP Nick End Labeling) is a very popular assay for identifying apoptotic cells. The assay identifies apoptotic cells in situ by using terminal deoxynucleotidyl transferase (TdT) to transfer biotin-dUTP to these strand breaks of cleaved DNA. The biotin-labeled cleavage sites are then detected by reaction with HRP conjugated streptavidin and visualized by DAB showing brown color [24]. MGC-803 cells treated with compound 5f at 5 μM for 6, 12, and 18 h were stained with TUNEL, with HCPT as positive control at 5 μM for 18 h. […] We further concluded that compound 5f induced apoptosis against MGC-803."}, "MGC-803 cells [7]": {"test_system": "MGC-803 cells", "experiment": "Flow cytometry, Annexin V/PI double staining", "assay_type": "cell-based, human", "settings": "for apoptosis ratio: MGC-803 cells, 10 μM, 24 h", "description": "In addition, the apoptosis ratios induced by compound 5f in MGC-803 cells were determined by flow cytometry, using Annexin V/PI double staining. Flow cytometry was performed on the total cell population (including both adherent and detached cells) and apoptosis detection was carried out as mentioned above. This double staining procedure discriminated necrotic cells (Q1, Annexin^−/PI^+), late apoptotic cells (Q2, Annexin^+/PI^+), intact cells (Q3, Annexin^−/PI^−) and early apoptotic cells (Q4, Annexin^+/PI^−). […] For the positive control HCPT, the apoptosis ratio was only 22.3% after 24 h of treatment at a concentration of 10 μM.\nTo further quantitative analysis of apoptosis, the cells were washed with PBS, stained with annexinV-FITC and propidium iodide (PI) using the AnnexinV-FITC kit (KeyGEN BioTECH). The cells were then subjected to flow cytometry according to manufacturer’s instructions and the stained cells were analyzed by FACS can flow cytometer (Becton–Dickinson, CA, USA)."}, "MGC-803 cells [8]": {"test_system": "MGC-803 cells", "experiment": "AO/EB staining for apoptosis", "assay_type": "cell-based, human", "settings": "12 h, 5f at 1, 5, 10 μM, HCPT at 10 μM", "description": "It is well known that AO can pass through cell membranes, but EB cannot. Under the fluorescence microscope, living cells appear green. Necrotic cells stain red but have a nuclear morphology resembling that of viable cells. Apoptotic cells appear green, and morphological changes such as cell blebbing and formation of apoptotic bodies will be observed.\nRepresentative images of the cells treated with 10 μM of HCPT (used as positive control) and 1, 5, 10 μM of compound 5f for 12 h are shown in Fig. 2a.\nCells were seeded in 6-well culture plates at a density of 5 × 10^4 cells/mL in 0.6 mL of medium and allowed to adhere to the plates overnight. The cells were incubated with different concentrations of compounds or vehicle solution (0.1% DMSO) in a medium containing 10% FBS for 12 h. After the treatment, the cover slip with monolayer cells was inverted on the glass slide with 20 μL of AO/EB stain (100 μg/mL), and finally analyzed for morphological characteristics of cell apoptosis under a fluorescence microscope (Olympus Co., Japan)."}}}
{"smiles": "Cc1ccc2ncnc(Oc3ccccc3/C=C/C(=O)/C=C/c3c(Cl)cccc3Cl)c2c1", "note": "[Compound 5f, (1E,4E)-1-(2,6-dichlorophenyl)-5-(2-((6-methylquinazolin-4-yl)oxy)phenyl)penta-1,4-dien-3-one]", "values": [{"measurement": "inhibition at 10 µM", "setting": "[1]; Bcap37, 10 μM, 72 h, read-out: Inhibition rates against different cells (%) Bcap-37", "value": "76.5 ± 1.9", "unit": "%"}, {"measurement": "IC50", "setting": "[1]; Bcap37, 72 h after treatment", "value": "4.98 ± 0.39", "unit": "µM"}, {"measurement": "inhibition at 10 µM", "setting": "[2]", "value": "21.5 ± 2.7", "unit": "%"}, {"measurement": "inhibition at 10 µM", "setting": "[3]; 10 μM, 72 h, read-out: Inhibition rates against different cells (%) MGC-803", "value": "90.7 ± 0.6", "unit": "%"}, {"measurement": "IC50", "setting": "[3]; 72 h after treatment", "value": "0.85 ± 0.43", "unit": "µM"}, {"measurement": "Hoechst 33,258 staining, apoptotic morphology", "setting": "MGC-803 cells [4]", "value": "exhibited strong blue fluorescence and revealed typical apoptotic morphology"}, {"measurement": "inhibition at 10 µM", "setting": "[5]; PC-3, 10 μM, 72 h, read-out: Inhibition rates against different cells (%) PC3", "value": "93 ± 1.8", "unit": "%"}, {"measurement": "IC50", "setting": "[5]; PC-3, 72 h after treatment", "value": "1.37 ± 0.22", "unit": "µM"}, {"measurement": "TUNEL staining", "setting": "MGC-803 cells [6]", "value": "appeared as brown precipitate"}, {"measurement": "apoptosis of MGC-803 cells over time", "setting": "MGC-803 cells [7]; 10 μM for 6, 12, and 24 h", "value": "gradually increased in a time-dependent manner"}, {"measurement": "apoptosis ratio", "setting": "MGC-803 cells [7]", "value": 26.4, "unit": "%"}, {"measurement": "AO/EB staining, apoptotic morphology", "setting": "MGC-803 cells [8]", "value": "apoptotic cells with typical apoptotic features"}]}
{"smiles": "CC[C@@]1(O)C(=O)OCc2c1cc1n(c2=O)Cc2cc3cc(O)ccc3nc2-1", "note": "[HCPT, 10-hydroxyl camptothecine, reference compound]", "values": [{"measurement": "TUNEL staining", "setting": "MGC-803 cells [6]", "value": "appeared as brown precipitate"}, {"measurement": "apoptosis ratio", "setting": "MGC-803 cells [7]", "value": 22.3, "unit": "%"}, {"measurement": "AO/EB staining, apoptotic morphology", "setting": "MGC-803 cells [8]", "value": "apoptotic cells with typical apoptotic features"}]}
